This experiment concerns the target T1, GlunN1/GluN2A glutamate receptors (Homo sapiens, UniProt Q05586+Q12879).
T1 construct: expressed in transfected cells
In words: NMDA potentiation, whole-cell patch clamp of mammalian cells (IonWorks Barracuda, IWB). It is filed as cell-based. The conditions noted are these: 3 μM test article, HEK293 cells expressing human GRIN1/GRIN2A, co-application with EC20 L-glutamate and 30 μM glycine; for activation at 3 µM: read-out: GluN2A PCA IWB Ephys % potentiation at 3 μM. The procedure: NMDA potentiation was assessed using either whole cell patch clamp of mammalian cells which expressed NMDA receptors.
Whole-Cell Patch Clamp of Mammalian Cells (IONWORKS BARRACUDA® (IWB))
The whole-cell patch-clamp technique was used to investigate the effects of compounds GlunN1/GluN2A glutamate receptors expressed in mammalian cells.
HEK293 cells were transformed with adenovirus 5 DNA and transfected with cDNA encoding the human GRIN1/GRIN2A genes. Stable transfectants were selected using G418 and ZEOCIN™ (phleomycins)-resistance genes incorporated into the expression plasmid and selection pressure maintained with G418 and ZEOCIN™ (phleomycins) in the medium. Cells were cultured in Dulbecco's Modified Eagle Medium/Nutrient Mixture (D-MEM/F-12) supplemented with 10% fetal bovine serum, 100 μg/ml penicillin G sodium, 100 μg/ml streptomycin sulphate, 100 μg/ml Zeocin, 5 μg/ml blasticidin and 500 μg/ml G418.
Test article effects were evaluated in 8-point concentration-response format (4 replicate wells/concentration). All test and control solutions contained 0.3% DMSO and 0.01% KOLLIPHOR® (polyethoxylated castor oil) EL (C5135, Sigma). The test article formulations were loaded in a 384-well compound plate using an automated liquid handling system (SCICLONE® ALH3000, Caliper Life Sciences). The measurements were performed using IWB platform following this procedure:
Electrophysiological Procedures:
• a) Intracellular solution (mM): 50 mM CsCl, 90 mM CsF, 2 mM MgCl2, 5 mM EGTA, 10 mM HEPES. Adjust to pH 7.2 with CsOH. • b) Extracellular solution, HB-PS (composition in mM): NaCl, 137; KCl, 1.0; CaCl2), 5; HEPES, 10; Glucose, 10; pH adjusted to 7.4 with NaOH (refrigerated until use). • c) Holding potential: −70 mV, potential during agonist/PAM application: −40 mV. Recording Procedure: • a) Extracellular buffer will be loaded into the PPC plate wells (11 μL per well). Cell suspension will be pipetted into the wells (9 μL per well) of the PPC planar electrode. • b) Whole-cell recording configuration will be established via patch perforation with membrane currents recorded by on-board patch clamp amplifiers. • c) Two recordings (scans) will be performed. First, during pre-application of test article alone (duration of pre-application −5 min) and second, during test articles and agonist (EC20 L-glutamate and 30 μM glycine) co-application to detect positive modulatory effects of the test article.
Test Article Administration: The first pre-application will consist of the addition of 20 μL of 2× concentrated test article solution and, second, of 20 μL of 1× concentrated test article and agonist at 10 μL/s (2 second total application time).
On the technique in general: The patch-clamp technique gives a direct electrical read-out from membranes.

The values below come from US11732000B2, “Oxysterols and methods of use thereof” (Sage Therapeutics, Inc., priority 2015, dated 2023).

T1 sequence (Q12879 23-1464, other chains not shown): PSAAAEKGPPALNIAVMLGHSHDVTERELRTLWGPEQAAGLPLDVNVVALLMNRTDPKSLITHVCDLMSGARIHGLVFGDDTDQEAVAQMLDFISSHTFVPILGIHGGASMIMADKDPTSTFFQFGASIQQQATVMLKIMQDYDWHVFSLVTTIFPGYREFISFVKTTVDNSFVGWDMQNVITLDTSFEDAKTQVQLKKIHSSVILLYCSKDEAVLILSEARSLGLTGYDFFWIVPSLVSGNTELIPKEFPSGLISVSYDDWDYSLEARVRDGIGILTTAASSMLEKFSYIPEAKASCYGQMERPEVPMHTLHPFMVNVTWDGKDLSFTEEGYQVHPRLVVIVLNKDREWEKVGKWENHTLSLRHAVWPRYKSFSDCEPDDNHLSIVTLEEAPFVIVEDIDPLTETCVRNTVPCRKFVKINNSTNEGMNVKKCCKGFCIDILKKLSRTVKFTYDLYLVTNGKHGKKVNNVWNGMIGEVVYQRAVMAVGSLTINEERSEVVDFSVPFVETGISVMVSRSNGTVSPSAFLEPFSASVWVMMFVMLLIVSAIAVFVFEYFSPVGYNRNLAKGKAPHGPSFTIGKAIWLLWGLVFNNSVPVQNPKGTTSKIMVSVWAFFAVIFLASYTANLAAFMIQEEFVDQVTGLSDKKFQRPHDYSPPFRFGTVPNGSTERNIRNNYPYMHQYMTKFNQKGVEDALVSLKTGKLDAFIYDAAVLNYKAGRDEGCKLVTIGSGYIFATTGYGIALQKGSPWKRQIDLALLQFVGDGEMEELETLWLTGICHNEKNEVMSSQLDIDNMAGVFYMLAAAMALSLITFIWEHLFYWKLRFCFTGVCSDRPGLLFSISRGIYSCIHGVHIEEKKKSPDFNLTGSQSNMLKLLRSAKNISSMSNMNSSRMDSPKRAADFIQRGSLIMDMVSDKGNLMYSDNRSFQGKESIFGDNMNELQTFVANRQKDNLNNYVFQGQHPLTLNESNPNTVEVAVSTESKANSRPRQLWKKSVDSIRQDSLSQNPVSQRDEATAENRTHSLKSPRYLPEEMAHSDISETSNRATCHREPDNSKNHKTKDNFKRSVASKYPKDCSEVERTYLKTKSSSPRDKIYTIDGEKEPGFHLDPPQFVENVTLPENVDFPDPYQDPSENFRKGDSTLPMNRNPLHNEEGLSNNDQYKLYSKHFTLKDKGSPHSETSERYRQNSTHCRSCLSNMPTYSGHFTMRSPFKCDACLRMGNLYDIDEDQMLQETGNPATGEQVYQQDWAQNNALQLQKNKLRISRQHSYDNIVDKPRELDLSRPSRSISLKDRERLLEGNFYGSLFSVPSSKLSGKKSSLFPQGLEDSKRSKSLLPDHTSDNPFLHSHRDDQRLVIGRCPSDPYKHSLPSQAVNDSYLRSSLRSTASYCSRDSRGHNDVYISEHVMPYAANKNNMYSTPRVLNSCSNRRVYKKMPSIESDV

For the compound `CC[C@]1(O)CC[C@@]2(C)C(=CC[C@H]3[C@@H]4CC[C@H]([C@H](C)CC[C@H](O)C5CC5)[C@@]4(C)CC[C@@H]32)C1` (single isomer, unassigned) [Compound 25], the “GluN2A PCA IWB Ephys % potentiation at 3 μM” value is recorded as “C (“C” indicates potentiation of >150%)”.

Consider `CC[C@H](O)CC[C@@H](C)[C@H]1CC[C@H]2[C@@H]3CC[C@H]4C[C@@](C)(O)CC[C@]4(C)[C@H]3CC[C@]12C` [Compound 9], for which the activation at 3 µM was 75 to 150%.

In the case of `CC[C@]1(O)CC[C@@]2(C)C(=CC[C@H]3[C@@H]4CC[C@H]([C@H](C)CC[C@H](O)C(C)C)[C@@]4(C)CC[C@@H]32)C1` [Compound 10], the activation at 3 µM was over 150%.

Take `CC[C@]1(O)CC[C@@]2(C)C(=CC[C@H]3[C@@H]4CC[C@H]([C@H](C)CC[C@@H](O)C(C)C)[C@@]4(C)CC[C@@H]32)C1` [Compound 11]: the activation at 3 µM is over 150%.

For the compound `CC[C@]1(O)CC[C@@]2(C)[C@@H](CC[C@@H]3[C@@H]2CC[C@]2(C)[C@@H]([C@H](C)CC[C@H](O)C(C)C)CC[C@@H]32)C1` [Compound 13], the activation at 3 µM was over 150%.

Take `CC[C@]1(O)CC[C@@]2(C)[C@@H](CC[C@@H]3[C@@H]2CC[C@]2(C)[C@@H]([C@H](C)CC[C@@H](O)C(C)C)CC[C@@H]32)C1` [Compound 15]: the “GluN2A PCA IWB Ephys % potentiation at 3 μM” value is recorded as “C (“C” indicates potentiation of >150%)”.

For `CC(C)[C@H](O)CC[C@@H](C)[C@H]1CC[C@H]2[C@@H]3CC=C4C[C@@](C)(O)CC[C@]4(C)[C@H]3CC[C@]12C` [Compound 19], the activation at 3 µM was over 150%.

For `CC[C@H](O)CC[C@@H](C)[C@H]1CC[C@H]2[C@@H]3CC=C4C[C@](O)(CC)CC[C@]4(C)[C@H]3CC[C@]12C` [Compound 23], the activation at 3 µM is over 150%.

On to `CC[C@]1(O)CC[C@@]2(C)C(=CC[C@H]3[C@@H]4CC[C@H]([C@H](C)CC[C@@H](O)C5CC5)[C@@]4(C)CC[C@@H]32)C1` [Compound 26], for which the “GluN2A PCA IWB Ephys % potentiation at 3 μM” value is reported as “C (“C” indicates potentiation of >150%)”.

Turning to `C[C@H](CC[C@H](O)C1CC1)[C@H]1CC[C@H]2[C@@H]3CC=C4C[C@@](C)(O)CC[C@]4(C)[C@H]3CC[C@]12C` [Compound 28], the “GluN2A PCA IWB Ephys % potentiation at 3 μM” value is recorded as “C (“C” indicates potentiation of >150%)”.

Regarding `C[C@H](CC[C@@H](O)C1CC1)[C@H]1CC[C@H]2[C@@H]3CC=C4C[C@@](C)(O)CC[C@]4(C)[C@H]3CC[C@]12C` [Compound 29], the “GluN2A PCA IWB Ephys % potentiation at 3 μM” value is “B (“B” indicates potentiation of >75% to 150%)”.

For the compound `C[C@H](CCC(O)C1CC1)[C@H]1CC[C@H]2[C@@H]3CC[C@H]4C[C@@](C)(O)CC[C@]4(C)[C@H]3CC[C@]12C` (stereo partly shown) [Compound 30], the activation at 3 µM was over 150%.

Regarding `C[C@H](CC[C@@H](O)C1CC1)[C@H]1CC[C@H]2[C@@H]3CC[C@H]4C[C@@](C)(O)CC[C@]4(C)[C@H]3CC[C@]12C` [Compound 32], the “GluN2A PCA IWB Ephys % potentiation at 3 μM” value was “C (“C” indicates potentiation of >150%)”.

For the compound `CC[C@]1(O)CC[C@@]2(C)[C@@H](CC[C@@H]3[C@@H]2CC[C@]2(C)[C@@H]([C@H](C)CCC(C)O)CC[C@@H]32)C1` (stereo partly shown) [Compound 33], the activation at 3 µM was 10 to 75%.

Regarding `CCC(O)CC[C@@H](C)[C@H]1CC[C@H]2[C@@H]3CC[C@H]4C[C@](O)(CC)CC[C@]4(C)[C@H]3CC[C@]12C` (stereo partly shown) [Compound 34], the activation at 3 µM is over 150%.

As to `CC[C@@H](O)CC[C@@H](C)[C@H]1CC[C@H]2[C@@H]3CC[C@H]4C[C@](O)(CC)CC[C@]4(C)[C@H]3CC[C@]12C` [Compound 35], the activation at 3 µM lay in the range of 75 to 150%.

With `CC[C@H](O)CC[C@@H](C)[C@H]1CC[C@H]2[C@@H]3CC[C@H]4C[C@](O)(CC)CC[C@]4(C)[C@H]3CC[C@]12C` [Compound 36], the activation at 3 µM is over 150%.

As for `CC[C@]1(O)CC[C@@]2(C)[C@@H](CC[C@@H]3[C@@H]2CC[C@]2(C)[C@@H]([C@H](C)CCC(O)C4CC4)CC[C@@H]32)C1` (stereo partly shown) [Compound 38], the activation at 3 µM was over 150%.

Turning to `CC[C@]1(O)CC[C@@]2(C)[C@@H](CC[C@@H]3[C@@H]2CC[C@]2(C)[C@@H]([C@H](C)CC[C@H](O)C4CC4)CC[C@@H]32)C1` [Compound 39], the activation at 3 µM is 10 to 75%.

With `CC[C@]1(O)CC[C@@]2(C)[C@@H](CC[C@@H]3[C@@H]2CC[C@]2(C)[C@@H]([C@H](C)CC[C@@H](O)C4CC4)CC[C@@H]32)C1` [Compound 40], the activation at 3 µM is over 150%.

Take `C[C@H](CC[C@H](O)C1CCC1)[C@H]1CC[C@H]2[C@@H]3CC=C4C[C@@](C)(O)CC[C@]4(C)[C@H]3CC[C@]12C` [Compound 41-A]: the “GluN2A PCA IWB Ephys % potentiation at 3 μM” value is recorded as “C (“C” indicates potentiation of >150%)”.

For `C[C@H](CC[C@@H](O)C1CCC1)[C@H]1CC[C@H]2[C@@H]3CC=C4C[C@@](C)(O)CC[C@]4(C)[C@H]3CC[C@]12C` [Compound 41-B], the activation at 3 µM was over 150%.

As to `C[C@H](CC[C@H](O)C1CCOCC1)[C@H]1CC[C@H]2[C@@H]3CC=C4C[C@@](C)(O)CC[C@]4(C)[C@H]3CC[C@]12C` [Compound 44-A], the “GluN2A PCA IWB Ephys % potentiation at 3 μM” value is given as “C (“C” indicates potentiation of >150%)”.

Consider `C[C@H](CCC(O)C1CCOCC1)[C@H]1CC[C@H]2[C@@H]3CC=C4C[C@@](C)(O)CC[C@]4(C)[C@H]3CC[C@]12C` (stereo partly shown) [Compound 44], for which the activation at 3 µM was over 150%.

`C[C@H](CC[C@H](O)CC(F)(F)F)[C@H]1CC[C@H]2[C@@H]3CC=C4C[C@@](C)(O)CC[C@]4(C)[C@H]3CC[C@]12C` [Compound 45]: the activation at 3 µM was over 150%.

Consider `C[C@H](CC[C@@H](O)CC(F)(F)F)[C@H]1CC[C@H]2[C@@H]3CC=C4C[C@@](C)(O)CC[C@]4(C)[C@H]3CC[C@]12C` [Compound 46], for which the activation at 3 µM was over 150%.

With `C[C@H](CC[C@H](O)CC(F)(F)F)[C@H]1CC[C@H]2[C@@H]3CC[C@H]4C[C@@](C)(O)CC[C@]4(C)[C@H]3CC[C@]12C` [Compound 47], the activation at 3 µM was over 150%.

In the case of `C[C@H](CC[C@@H](O)CC(F)(F)F)[C@H]1CC[C@H]2[C@@H]3CC[C@H]4C[C@@](C)(O)CC[C@]4(C)[C@H]3CC[C@]12C` [Compound 48], the activation at 3 µM was over 150%.

With `CC[C@]1(O)CC[C@@]2(C)C(=CC[C@H]3[C@@H]4CC[C@H]([C@H](C)CCC(O)CC(F)(F)F)[C@@]4(C)CC[C@@H]32)C1` (stereo partly shown) [Compound 52], the activation at 3 µM is over 150%.

Take `CC[C@]1(O)CC[C@@]2(C)C(=CC[C@H]3[C@@H]4CC[C@H]([C@H](C)CC[C@H](O)CC(F)(F)F)[C@@]4(C)CC[C@@H]32)C1` [Compound 53]: the “GluN2A PCA IWB Ephys % potentiation at 3 μM” value is recorded as “C (“C” indicates potentiation of >150%)”.

On to `CC[C@]1(O)CC[C@@]2(C)C(=CC[C@H]3[C@@H]4CC[C@H]([C@H](C)CC[C@@H](O)CC(F)(F)F)[C@@]4(C)CC[C@@H]32)C1` [Compound 54], for which the activation at 3 µM was over 150%.
